Measured values: US5760001A, “Cytokine restraining agents and methods of use in pathologies and conditions associated with altered cytokine levels” (Trega Biosciences, Inc., priority 1995, dated 1998)

Legend:
Type in all cases: in vivo
[1] = system: male Sprague-Dawley rats; assay: Cyclosporine-induced nephrotoxicity; conditions: for extracellular fluid volumes (ECF): second study, control 27.6±1.9, CsA and vehicle 27.5±1.7
Description: In the first study, male Sprague-Dawley rats (n=43) with a weight range of 240-290 g at the initiation of the cyclosporine A (CsA) treatment were divided into 4 weight matched groups. The groups were as follows: (1) Control: no CsA, no EX-2, treatment only with CsA vehicle (PBS) PO and EX-2 vehicle (also PBS) IP; (2) CsA: treatment with CsA (50 mg/kg in PBS administered PO daily at 0830 hr for 9 days) and IP injections of PBS (Ex-2 vehicle); (3) CsA and 50 μg: CsA treatment identical to group 2 with the addition of EX-2 (50 μg/kg IP administered daily at 0800 and 1700 hr in EX-2 vehicle); and (4) CsA and 500 μg: CsA treatment identical to groups 2 and 3, and EX-2 treatment protocol similar to group 3 except that the dose of EX-2 was 500 μg/kg BW. After deep anesthesia was assured, the rats were cannulated in the trachea (PE 240) jugular vein, femoral artery, and bladder (PE 50 for the previous 3 cannulations).After cannulation, infusion of ^3 H-inulin was initiated 50 min prior to the measurement period to assess glomerular filtration rate, renal blood flow and plasma flow. Renal blood flow was determined by the inulin extraction technique. At the end of the study, the kidneys were removed for histological analysis.
In the second study, male Sprague-Dawley rats (n=31) with a weight range of 240-290 g at the time of initiation of the cyclosporine treatment were divided into 4 weight-matched groups. The time course and protocol of this study matched the first study with the following exceptions: (1) The daily dose of CsA was reduced to 30 mg/kg and was administered subcutaneously (SC) and (2) the 50 μ/kg dose of EX-2 was substituted with a twice daily dose of 200 μg/kg. The 500 μg/kg dose of EX-2 was repeated in this study. Renal hemodynamics were determined and extracellular fluid volumes were also assessed.
In the second studio, where extracellular fluid volumes (ECF) were measured, there were no differences in ECF among control and treatment groups (27.6±1.9 in control, 27.5±1.7 in CsA and vehicle, 26.2±0.9 in CsA+200 μg/kg EX-2, and 25.7±1.4% in CsA+500 μg/kg EX-2).
The results from the two experiments are shown in FIGS. 1a and 1b and provide evidence that a cytokine restraining peptide of the present invention reduces cyclosporine-induced nephrotoxicity and the damage caused thereby.

[2] = system: IL-6; assay: Reduction of LPS-induced interleukin-6 levels in mice; conditions: 300 μg/mouse; LPS treated mice; vs untreated control mice
Description: Balb/c mice were grouped and treated as described in Example III, above. Blood samples were obtained from the orbital sinus at various times up to six hr and serum was collected and diluted as described above. A 100 μl aliquot was assayed for IL-6 levels using an IL-6-specific ELISA by a modification of the method of Starnes et al., J. Immunol. 145:4185-4194 (1990), which is incorporated herein by reference.
The mean (±SEM) IL-6 level in six mice from each group was determined and the percent reduction in IL-6 was calculated.

[3] = system: Male Shelton rabbits; assay: Morphine-induced respiratory depression; conditions: 10 + 20 + 20 μg/kg/rabbit iv; at end of experiment (80 min)
Description: Male Shelton rabbits (3-4 kg) were restrained and fitted around the thorax, just behind the front limbs, with a respiration transducer (Model F-RCT; Grass Instruments; Quincy Mass.). The transducer was connected to a grass polygraph via an EKG cable. An intravenous line was established for drug administration by cannulating the marginal ear vein using a 25G butterfly needle.
Rabbit breathing was allowed to stabilize, then. morphine sulfate (2 mg/kg in 0.5 ml saline) was administered by intravenous (iv) injection and respiratory rate and depth were monitored for 10 min. A second dose of morphine was administered, then, after 10 min, EX-2 or EX-3 (10 μg/kg in 0.5 ml saline) was administered, iv, and rabbits were monitored for 20 min. Two additional doses of EX-2 or EX-3 (20 μg/kg in 1.0 ml saline) were administered at 20 min intervals, i.e., 40 min and 60 min after the first morphine injection.
Results were calculated as the percent change from baseline values and are expressed as the difference of the mean value of the treated group minus the mean value of the control group at the end of the experiment (80 min).

[4] = system: Sprague-Dawley rats; assay: Renal ischemia-reperfusion injury; set-up: RVR (renal vascular resistance): unit not given here; conditions: I/R + EX-2 (50 or 500 μg/kg iv before 1 hr clamping), after 60 min reperfusion
Description: Sprague-Dawley rats (250-300 g) were anesthetized with Inactin® (120 mg/kg). After deep anesthesia was assured, the rats were cannulated in the trachea with polyethylene (PE) tubing (PE 240), jugular vein, femoral artery, bladder (PE 50 for previous 3 cannulations), and left ureter (stretched PE 50). Once cannulation was completed, a 2 cm flank incision above the left kidney was performed and the renal pelvis and vascular bundle were exposed. The tissue surrounding the left renal artery was gently dissected away from the artery. The exposed renal artery was clamped for 1 hr using a small vascular cross-over clamp.
Just prior to clamping, EX-2 (50 or 500 μg/kg), ketorolac (KETO, 1 mg/kg), or vehicle was administered intravenously (iv) After 1 hr of clamping (ischemia), the clamp was gently removed with care taken to avoid damaging either the renal artery or nerves. An infusion of ^3 H-Inulin (NEN/Dupont; Wilmington, Del.), (0.6 μCi/ml in phosphate buffered saline (PBS)) (2 ml/hr) was initiated at a constant rate of […]. After 60 min of reperfusion, glomerular filtration rate (GFR), renal plasma flow (RPF) and renal vascular resistance (RVR) were assessed in two 30 min collection periods. The kidney was then removed for analysis. Sham operated and clamped rats served as controls for the above group. Contralateral renal function was utilized to determine the stability of the rat's renal function during the measured period.

Substance: Ac-Nle-Gln-His-(D)Phe-Arg-(D)Trp-Gly-NH2 [EX-2]
- changes in ECF as a result of treatment ([1]; CsA-treated rats): no changes
- renal blood flow ([1]; CsA-treated rats): not different from control
- urinary protein excretion compared to CsA-treated rats ([1]; CsA-treated rats): did not increase
- urinary protein excretion normalized to glomerular filtration rate ([1]; CsA-treated rats): trend to decreased
- GFR compared to CsA and vehicle controls ([1]; both studies, CsA-treated rats): significantly increased
- extracellular fluid volumes (ECF) ([1]; CsA 30 mg/kg SC + 200 μg/kg EX-2 twice daily): 26.2±0.9%
- extracellular fluid volumes (ECF) ([1]; CsA 30 mg/kg SC + 500 μg/kg EX-2 twice daily): 25.7±1.4%
- Reduction in IL-6 levels [2]: 60%
- Reduction in Morphine-induced Respiratory Depression [3]: 50%
- GFR (glomerular filtration rate) ([4]; I/R + PBS 0.2 ± 0.1, Sham 1.0 ± 0.1): 0.5 ± 0.1
- RPF (renal plasma flow) ([4]; I/R + PBS 0.8 ± 0.2, Sham 4.2 ± 0.4): 2.3 ± 0.3
- RVR (renal vascular resistance) ([4]; I/R + PBS 6.6 ± 2.1, Sham 1.0 ± 0.1): 1.8 ± 0.2
